Laboratory results: US11512053B2, “Arginine methyltransferase inhibitors and uses thereof” (priority 2013, dated 2022)
Counter-ions that a name gives are not always drawn. Like-named read-outs stand apart in the source and are kept apart here.

What was measured:
[1] = target: full-length human PRMT6 (Flag- and His-tagged) (Homo sapiens, UniProt Q96LA8); assay: PRMT6 Biochemical Assay (3H-SAM Flashplate, peptide substrate); conditions: read-out: Biochemical IC50 PRMT6
Method in brief: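 Radiometric methyltransferase readout: tritium transfer onto a biotin-tagged histone H4 36-50 peptide bearing monomethyl K44 (75 nM), captured on streptavidin Flashplates after stopping with 400 uM unlabeled SAM. Enzyme is baculovirus-expressed Flag-PRMT6-His at 1 nM, given 30 min with compound at room temperature before adding 200 nM 3H-SAM and 250 nM cold SAM (pH 7.6 Bicine, 2% DMSO). Percent inhibition relative to max/min (1 mM SAH) controls, curve-fit to IC50.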

[2] = system: mono-methyl arginine in RKO cells; assay: RKO Methylation Assay, In Cell Western (ICW) for detection of mono-methyl arginine and DNA content; assay type: cell-based
Method in brief: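 RKO cells were treated with compound for 72 hours at 37 °C, methanol-fixed and stained overnight at 4 °C with anti-mono-methyl arginine (1:200), with DRAQ5 for DNA. Odyssey 800/700 nm intensity ratio was normalized to DMSO and 20 μM reference-compound controls. EC30 from triplicate nine-point curves.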

[3] = single experiment or average of multiple experiments
[4] = Homo sapiens, RKO, 72 h, RKO cells, 72 hours compound incubation, mono-methyl arginine signal normalised to DNA content (DRAQ5), percent activation vs 20 μM reference compound, read-out: In Cell Western EC30
[5] = Homo sapiens, RKO, 72 h, RKO cells, 72 hours incubation, mono-methyl arginine signal normalised to DNA content, single experiment or average of multiple experiments, read-out: In Cell Western EC30

Chain of full-length human PRMT6 (Flag- and His-tagged) (Q96LA8 with tags, fused parts or gaps): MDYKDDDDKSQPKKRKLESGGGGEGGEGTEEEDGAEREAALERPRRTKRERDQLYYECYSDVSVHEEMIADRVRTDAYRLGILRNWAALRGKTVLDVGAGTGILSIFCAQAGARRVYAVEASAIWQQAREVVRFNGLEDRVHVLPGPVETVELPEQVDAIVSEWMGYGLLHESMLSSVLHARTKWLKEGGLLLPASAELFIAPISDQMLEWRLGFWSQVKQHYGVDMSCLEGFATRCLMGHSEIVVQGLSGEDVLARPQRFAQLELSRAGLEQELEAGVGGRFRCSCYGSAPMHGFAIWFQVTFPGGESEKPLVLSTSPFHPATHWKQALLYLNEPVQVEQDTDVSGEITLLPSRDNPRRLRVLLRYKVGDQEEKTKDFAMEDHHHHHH

SMILES | IC50 [1] | IC50 [1, 3] | EC30 [2, 4] | EC30 [2, 5] | EC30 ([2]; Homo sapiens, RKO, 72 h, read-out: In Cell Western EC30, RKO cells, 72 hours compound incubation, mono-methyl arginine signal normalised to DNA content (DRAQ5), percent activation vs 20 μM reference compound) | EC30 ([2]; Homo sapiens, RKO, 72 h, read-out: In Cell Western EC30, RKO cells, 72 hours incubation, mono-methyl arginine signal normalised to DNA content, single experiment or average of multiple experiments) | In Cell Western EC30 ([2]; RKO cells, 72 hours compound incubation, mono-methyl arginine signal normalised to DNA content (DRAQ5), percent activation vs 20 μM reference compound) | EC30 ([2]; RKO cells, 72 hours incubation, mono-methyl arginine signal normalised to DNA content, single experiment or average of multiple experiments, read-out: In Cell Western EC30)
CNCCN(C)Cc1c[nH]nc1[C@H]1CC[C@@H](C(=O)NCCC(C)C)CC1 [Compound 204] | < 100 nM | 63.6 nM | < 3 µM | 1.55 µM |  |  |  | 
CNCCN(C)Cc1c[nH]nc1[C@H]1CC[C@H](N(CCC(C)C)C(=O)CCCOC)CC1 [Compound 238] | < 100 nM | 53.9 nM | < 3 µM | 2.15 µM |  |  |  | 
CNCCN(C)Cc1c[nH]nc1C1CCC(C)(C)[C@@H](C(=O)OC)C1 (stereo partly drawn) [Compound 255] | < 100 nM | 27.6 nM | < 3 µM | 0.214 µM |  |  |  | 
CNCCN(C)Cc1c[nH]nc1[C@H]1CC[C@@H](O)CC1 [Compound 217, 4-[4-([methyl[2-(methylamino)ethyl]amino]methyl)-1H-pyrazol-3-yl]cyclohexan-1-ol trifluoroacetate] | < 100 nM | 34 nM |  |  | < 3 µM | 0.111 µM |  | 
CCN(C(=O)CC(C)C)[C@H]1CC[C@@H](c2n[nH]cc2CN(C)CCNC)CC1 [Compound 240] | < 100 nM | 6.72 nM | < 3 µM | 1.18 µM |  |  |  | 
CNCCN(C)Cc1c[nH]nc1[C@H]1CC[C@@H](N(CCOc2ccccc2)C(=O)CC(C)C)CC1 [Compound 222] | < 100 nM | 21.3 nM | < 3 µM | 2.61 µM |  |  |  | 
CNCCN(C)Cc1n[nH]cc1[C@H]1CC[C@]2(CC1)CC(C)(C)CO2 [Compound 201] | 101 to 1000 nM |  | < 3 µM | 0.155 µM |  |  |  | 
CNCCN(C)Cc1c[nH]nc1[C@H]1CC[C@@H](C(=O)N(C)CC(C)C)CC1 [Compound 215] | < 100 nM | 30.6 nM | < 3 µM | 0.164 µM |  |  |  | 
CNCCN(C)Cc1c[nH]nc1[C@H]1CC[C@H](N(CCOC)C(=O)CC(C)C)CC1 [Compound 252] | < 100 nM | 48.3 nM | < 3 µM | 0.267 µM |  |  |  | 
CNCCN(C)Cc1c[nH]nc1[C@H]1CC[C@H](N(CCC(C)C)C(=O)CCOC)CC1 [Compound 236] | < 100 nM | 62.4 nM | < 3 µM | 0.813 µM |  |  |  | 
CNCCN(C)Cc1c[nH]nc1[C@H]1CC[C@@H](C(=O)N(CCCOC)CCC(C)C)CC1 [Compound 214] | < 100 nM | 50.5 nM | < 3 µM | 0.0958 µM |  |  |  | 
CNCCN(C)Cc1cnn(C)c1[C@H]1CC[C@]2(CC1)CC(C)(C)CO2 [Compound 257] | 101 to 1000 nM | 153 nM | < 3 µM | 0.0132 µM |  |  |  | 
CNCCN(C)Cc1c[nH]nc1C1CCC(F)(F)CC1 [Compound 216] | < 100 nM | 20.5 nM | < 3 µM | 0.111 µM |  |  |  | 
CCN(C(=O)CCOc1ccccc1)[C@H]1CC[C@H](c2n[nH]cc2CN(C)CCNC)CC1 [Compound 225] | < 100 nM | 11.6 nM | < 3 µM | 0.649 µM |  |  |  | 
CNCCN(C)Cc1c[nH]nc1[C@H]1CC[C@@H](N(CCC(C)C)C(=O)CCCOC)CC1 [Compound 237] | < 100 nM | 41 nM | < 3 µM | 1.44 µM |  |  |  | 
CNCCN(C)Cc1c[nH]nc1[C@H]1CC[C@H](N(CC(C)C)C(=O)CCOC)CC1 [Compound 234] | < 100 nM | 84.1 nM | < 3 µM | 1.06 µM |  |  |  | 

SMILES | IC50 [1] | IC50 [1, 3] | EC30 [2, 4] | EC30 [2, 5] | EC30 ([2]; Homo sapiens, RKO, 72 h, read-out: In Cell Western EC30, RKO cells, 72 hours compound incubation, mono-methyl arginine signal normalised to DNA content (DRAQ5), percent activation vs 20 μM reference compound) | EC30 ([2]; Homo sapiens, RKO, 72 h, read-out: In Cell Western EC30, RKO cells, 72 hours incubation, mono-methyl arginine signal normalised to DNA content, single experiment or average of multiple experiments) | In Cell Western EC30 ([2]; RKO cells, 72 hours compound incubation, mono-methyl arginine signal normalised to DNA content (DRAQ5), percent activation vs 20 μM reference compound) | EC30 ([2]; RKO cells, 72 hours incubation, mono-methyl arginine signal normalised to DNA content, single experiment or average of multiple experiments, read-out: In Cell Western EC30)
CNCCN(C)Cc1cn(C)nc1[C@H]1CC[C@]2(CC1)CC(C)(C)CO2 [Compound 206, Methyl([1-methyl-3-[(5R,8S)-3,3-dimethyl-1-oxaspiro[4.5]decan-8-yl]-1H-pyrazol-4-yl]methyl)[2-(methylamino)ethyl]amine hydrochloride] | 101 to 1000 nM | 207 nM | < 3 µM | 0.0765 µM |  |  |  | 
CNCCN(C)Cc1c[nH]nc1[C@H]1CC[C@@H](N(CCC(C)C)C(=O)CCOC)CC1 [Compound 235] | < 100 nM | 34.1 nM | < 3 µM | 0.813 µM |  |  |  | 
CNCCN(C)Cc1c[nH]nc1[C@H]1CC[C@H](N(CC2CCOCC2)C(=O)CC(C)C)CC1 [Compound 192] | 101 to 1000 nM | 173 nM | 3.01 to 12 µM | 9.25 µM |  |  |  | 
CNCCN(C)Cc1c[nH]nc1[C@H]1CC[C@@]2(CCC(C)(C)O2)CC1 [Compound 260] | < 100 nM | 83.1 nM | < 3 µM | 0.207 µM |  |  |  | 
CNCCN(C)Cc1c[nH]nc1[C@H]1CC[C@H](C(=O)N(C)CC(C)C)CC1 [Compound 226] | < 100 nM | 41.5 nM | < 3 µM | 1.53 µM |  |  |  | 
CNCCN(C)Cc1n[nH]cc1[C@H]1CC[C@H](C(=O)NCCC(C)C)CC1 [Compound 203] | < 100 nM | 36.8 nM | < 3 µM | 0.327 µM |  |  |  | 
CNCCN(C)Cc1c[nH]nc1[C@H]1CC[C@H](N(CCOc2ccccc2)C(=O)CCOC)CC1 [Compound 219] | < 100 nM | 31.9 nM | < 3 µM | 0.294 µM |  |  |  | 
CCN(C(=O)CCOc1ccccc1)[C@H]1CC[C@@H](c2n[nH]cc2CN(C)CCNC)CC1 [Compound 224] | < 100 nM | 18 nM | < 3 µM | 0.0847 µM |  |  |  | 
CNCCN(C)Cc1c[nH]nc1C1CCC(=O)N(CCCOC)C1 (stereo not drawn) [Compound 190] | 101 to 1000 nM | 156 nM | 3.01 to 12 µM | 6.62 µM |  |  |  | 
CNCCN(C)Cc1c[nH]nc1[C@H]1CC[C@H](N(CC(C)C)C(=O)CCOc2ccccc2)CC1 [Compound 232] | < 100 nM | 19.4 nM | < 3 µM | 0.957 µM |  |  |  | 
CNCCN(C)Cc1c[nH]nc1[C@H]1CC[C@@H](N(CCCOC)C(=O)CCC(C)C)CC1 [Compound 244] | < 100 nM | 54.8 nM | < 3 µM | 2.53 µM |  |  |  | 
CNCCN(C)Cc1c[nH]nc1C1CCC(=O)CC1 [Compound 194] | < 100 nM | 22.7 nM | < 3 µM | 1.18 µM |  |  |  | 
CNCCN(C)Cc1c[nH]nc1[C@H]1CC[C@H](N(CC(C)C)C(=O)CCCOC)CC1 [Compound 249] | < 100 nM | 82.8 nM |  |  |  |  | A (“A” indicates an EC30 ≤ 3.00 μM) | 0.6585 µM
CNCCN(C)Cc1n[nH]cc1[C@H]1CC[C@@]2(CC1)CC(C)(C)CO2 [Compound 200, Methyl[2-(methylamino)ethyl]([4-[(5S,8S)-3,3-dimethyl-1-oxaspiro[4.5]decan-8-yl]-1H-pyrazol-3-yl]methyl)amine trifluoroacetic acid salt] | < 100 nM |  | < 3 µM | 0.0203 µM |  |  |  | 
CNCCN(C)Cc1c[nH]nc1[C@H]1CC[C@]2(CCN(Cc3cc(F)cc(F)c3)C2=O)CC1 [Compound 197] | < 100 nM | 10.7 nM | < 3 µM | 0.406 µM |  |  |  | 
CNCCN(C)Cc1c[nH]nc1[C@H]1CC[C@H](N(CCOc2ccccc2)C(=O)CC(C)C)CC1 [Compound 223] | < 100 nM | 15.8 nM | < 3 µM | 0.275 µM |  |  |  | 
